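Interpolation was linear, between the two tested concentrations surrounding the appropriate level; five concentrations were tested over 48 hours in 96-well plates. Here, GI50 denotes the concentration required for 50% inhibition of growth.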 Calls of active or inactive are those of the source. No stated cut-off is given here; in the data, active = GI50 up to about 1.1 µM and inactive = higher.
Tests used:
Assay in all cases: inhibition of tumour cell growth, NCI panel, 48 h
[1] = system: 786-0
[2] = system: A549
[3] = system: ACHN
[4] = system: CAKI-1
[5] = system: CCRF-CEM
[6] = system: COLO 205
[7] = system: DLD-1
[8] = system: DMS-114
[9] = system: DMS-273
[10] = system: EKVX
[11] = system: HCC 2998
[12] = system: HCT-116
[13] = system: HCT-15
[14] = system: HL-60
[15] = system: HOP-18
[16] = system: HOP-62
[17] = system: HOP-92
[18] = system: HT-29
[19] = system: IGROV-1
[20] = system: K562
[21] = system: KM-20L2
[22] = system: KM12
[23] = system: LOX IMVI
[24] = system: LXFL 529
[25] = system: M14
[26] = system: M19-MEL
[27] = system: MOLT-4
[28] = system: Malme-3M
[29] = system: NCI-H226
[30] = system: NCI-H23
[31] = system: NCI-H460
[32] = system: NCI-H522
[33] = system: OVCAR-3
[34] = system: OVCAR-4
[35] = system: OVCAR-5
[36] = system: OVCAR-8
[37] = system: RPMI-8226
[38] = system: RXF 393
[39] = system: SF-268
[40] = system: SF-295
[41] = system: SF-539
[42] = system: SK-MEL-28
[43] = system: SK-MEL-2
[44] = system: SK-MEL-5
[45] = system: SK-OV-3
[46] = system: SN12C
[47] = system: SNB-19
[48] = system: SNB-75
[49] = system: SNB-78
[50] = system: SR
[51] = system: SW-620
[52] = system: TK-10
[53] = system: U-251
[54] = system: UACC-257
[55] = system: UACC-62
[56] = system: UO-31
[57] = system: XF498
[58] = system: RXF 631

## S=c1sc2c(n1-c1ccccc1)N=CNC2S (centres undefined)
[1]
  GI50: > 100 µM (inactive)
[2]
  GI50: 65.9 µM (inactive)
[3]
  GI50: 60.5 µM (inactive)
[4]
  GI50: > 100 µM (inactive)
[5]
  GI50: 46.2 µM (inactive)
[6]
  GI50: > 100 µM (inactive)
[7]
  GI50: > 100 µM (inactive)
[8]
  GI50: 31.1 µM (inactive)
[9]
  GI50: > 100 µM (inactive)
[10]
  GI50: 64.1 µM (inactive)
[11]
  GI50: 33.1 µM (inactive)
[12]
  GI50: 98.4 µM (inactive)
[13]
  GI50: 97.3 µM
[14]
  GI50: 71.6 µM (inactive)
[15]
  GI50: 28.8 µM (inactive)
[16]
  GI50: 41.3 µM (inactive)
[17]
  GI50: 25.9 µM (inactive)
[18]
  GI50: > 100 µM (inactive)
[19]
  GI50: > 100 µM (inactive)
[20]
  GI50: 63.2 µM (inactive)
[21]
  GI50: > 100 µM (inactive)
[22]
  GI50: > 100 µM (inactive)
[23]
  GI50: > 100 µM (inactive)
[24]
  GI50: > 100 µM (inactive)
[25]
  GI50: > 100 µM (inactive)
[26]
  GI50: 96.4 µM (inactive)
[27]
  GI50: 92.5 µM (inactive)
[28]
  GI50: 44.8 µM (inactive)
[29]
  GI50: 44.6 µM (inactive)
[30]
  GI50: 63 µM (inactive)
[31]
  GI50: > 100 µM (inactive)
[32]
  GI50: 45.5 µM (inactive)
[33]
  GI50: 77.1 µM (inactive)
[34]
  GI50: > 100 µM (inactive)
[35]
  GI50: > 100 µM (inactive)
[36]
  GI50: > 100 µM (inactive)
[37]
  GI50: 62.2 µM (inactive)
[38]
  GI50: > 100 µM (inactive)
[39]
  GI50: 56.5 µM (inactive)
[40]
  GI50: 84.7 µM (inactive)
[41]
  GI50: 65.3 µM (inactive)
[42]
  GI50: > 100 µM (inactive)
[43]
  GI50: > 100 µM (inactive)
[44]
  GI50: 57 µM (inactive)
[45]
  GI50: > 100 µM (inactive)
[46]
  GI50: 69.3 µM (inactive)
[47]
  GI50: 73.1 µM (inactive)
[48]
  GI50: 56.6 µM (inactive)
[49]
  GI50: 87.5 µM (inactive)
[50]
  GI50: 95.9 µM (inactive)
[51]
  GI50: > 100 µM (inactive)
[52]
  GI50: > 100 µM (inactive)
[53]
  GI50: 36.1 µM (inactive)
[54]
  GI50: 48.8 µM (inactive)
[55]
  GI50: 43.7 µM (inactive)
[56]
  GI50: 37.3 µM (inactive)
[57]
  GI50: > 100 µM (inactive)

## COC(=O)C1(C)CCc2c(OC)ccc(OC)c2C1=O (centres undefined)
[1]
  GI50: > 100 µM (inactive)
[2]
  GI50: > 100 µM (inactive)
[3]
  GI50: > 100 µM (inactive)
[5]
  GI50: > 100 µM (inactive)
[6]
  GI50: > 100 µM (inactive)
[7]
  GI50: > 100 µM (inactive)
[8]
  GI50: > 100 µM (inactive)
[9]
  GI50: > 100 µM (inactive)
[10]
  GI50: > 100 µM (inactive)
[11]
  GI50: > 100 µM (inactive)
[12]
  GI50: > 100 µM (inactive)
[13]
  GI50: > 100 µM
[14]
  GI50: > 100 µM (inactive)
[16]
  GI50: > 100 µM (inactive)
[19]
  GI50: > 100 µM (inactive)
[20]
  GI50: > 100 µM (inactive)
[22]
  GI50: > 100 µM (inactive)
[23]
  GI50: > 100 µM (inactive)
[24]
  GI50: > 100 µM (inactive)
[25]
  GI50: > 100 µM (inactive)
[26]
  GI50: > 100 µM (inactive)
[27]
  GI50: > 100 µM (inactive)
[28]
  GI50: > 100 µM (inactive)
[29]
  GI50: > 100 µM (inactive)
[30]
  GI50: > 100 µM (inactive)
[32]
  GI50: > 100 µM (inactive)
[33]
  GI50: > 100 µM (inactive)
[34]
  GI50: > 100 µM (inactive)
[35]
  GI50: > 100 µM (inactive)
[36]
  GI50: > 100 µM (inactive)
[37]
  GI50: > 100 µM (inactive)
[38]
  GI50: > 100 µM (inactive)
[58]
  GI50: > 100 µM (inactive)
[39]
  GI50: > 100 µM (inactive)
[40]
  GI50: > 100 µM (inactive)
[41]
  GI50: > 100 µM (inactive)
[42]
  GI50: > 100 µM (inactive)
[43]
  GI50: > 100 µM (inactive)
[44]
  GI50: > 100 µM (inactive)
[45]
  GI50: > 100 µM (inactive)
[46]
  GI50: > 100 µM (inactive)
[47]
  GI50: > 100 µM (inactive)
[48]
  GI50: 29.8 µM (inactive)
[49]
  GI50: > 100 µM (inactive)
[50]
  GI50: > 100 µM (inactive)
[51]
  GI50: > 100 µM (inactive)
[52]
  GI50: > 100 µM (inactive)
[53]
  GI50: > 100 µM (inactive)
[54]
  GI50: > 100 µM (inactive)
[55]
  GI50: > 100 µM (inactive)
[56]
  GI50: 76.2 µM (inactive)
[57]
  GI50: > 100 µM (inactive)
